Laboratory results reported in US20100172916A1, “SUBSTITUTED HYDROXYPHENYLAMINE COMPOUNDS” (AUSPEX PHARMACEUTICALS, INC., priority 2008, published 2010).

Assay: In vitro liver microsomal stability assay
Assay type: in vitro ADME
Settings: 0.5 mg per mL liver microsome protein, NADPH-generating system, 5 microgram per mL test compound, 37° C., 0-30 minutes, LC/MS/MS
Description: Liver microsomal stability assays were conducted at 0.5 mg per mL liver microsome protein with an NADPH-generating system in 2% sodium bicarbonate (2.2 mM NADPH, 25.6 mM glucose 6-phosphate, 6 units per mL glucose 6-phosphate dehydrogenase and 3.3 mM magnesium chloride). Test compounds were prepared as solutions in 20% acetonitrile-water and were added to the assay mixture (final assay concentration 5 microgram per mL) and incubated at 37° C. Final concentration of acetonitrile in the assay should be <1%. Aliquots (50 μL) were taken out at times 0, 7.5, 15, 22.5, and 30 minutes, and diluted with ice cold acetonitrile (200 μL) to stop the reactions. Samples were centrifuged at 12,000 RPM for 10 minutes to precipitate proteins. Supernatants were transferred to microcentrifuge tubes and stored for LC/MS/MS analysis of the degradation half-life of the test compounds.

Row | Compound | degradation half-life as compared to the non-isotopically enriched drug
1 | [2H][C@@H](c1cccc(O)c1)[C@]([2H])(N)C(=O)O [Example 2, d3-2-Amino-3-(3-hydroxy-phenyl)-propionic acid] | decrease in degradation half-life
2 | [2H]C([2H])(c1cccc(O)c1)[C@]([2H])(N)C(=O)O [Example 3, d3-2-Amino-3-(3-hydroxy-phenyl)-propionic acid] | decrease in degradation half-life
